Source: PubChem BioAssay (NCI)
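Protocol summary: plate cells (96-well), add compound at 5 concentrations, incubate 48 h, interpolate endpoints linearly. The concentration for full growth arrest is given as TGI.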

Tests used:
Assay in all cases: NCI tumour cell line growth inhibition, 48 h
A498 renal = test system: A498 renal
ACHN renal = test system: ACHN renal
BT-549 breast = test system: BT-549 breast
HCC-2998 colon = test system: HCC-2998 colon
K-562 leukemia = test system: K-562 leukemia
MDA-MB-435 = test system: MDA-MB-435
SF-268 CNS = test system: SF-268 CNS
SR leukemia = test system: SR leukemia
SW-620 colon = test system: SW-620 colon
MCF7 breast = test system: MCF7 breast

Compound | TGI (A498 renal) | TGI (ACHN renal) | TGI (BT-549 breast) | TGI (HCC-2998 colon) | TGI (K-562 leukemia) | TGI (MDA-MB-435) | TGI (SF-268 CNS) | TGI (SR leukemia) | TGI (SW-620 colon) | TGI (MCF7 breast)
C#CCOCC12C=CC(O1)C1COC(=O)C12 (configuration not stated) | > 100 µM | > 100 µM | > 100 µM | > 100 µM | > 100 µM | > 100 µM | > 100 µM | > 100 µM | > 100 µM | –
O=c1c(-c2ccccc2)c(SCCN2CCCCCC2)n(-c2ccccc2)c(=S)n1-c1ccccc1 | 56.7 µM | > 100 µM | > 100 µM | 12.9 µM | 93.9 µM | > 100 µM | – | 84.5 µM | > 100 µM | > 100 µM
NC(N)=NS(=O)(=O)c1ccc(NC(=O)c2cccc3c(NNc4ccc(S(N)(=O)=O)cc4)c4ccccc4nc23)cc1 | – | > 100 µM | > 100 µM | > 100 µM | 55 µM | > 100 µM | > 100 µM | 82.6 µM | > 100 µM | 86.3 µM
CCCO/N=[N+](\[O-])N(CC)CC | > 100 µM | > 100 µM | – | > 100 µM | > 100 µM | – | > 100 µM | > 100 µM | > 100 µM | –
Cn1c2c(c3ccccc31)CCN1C(=O)C34CCCC3CC21S4 (configuration not stated) | > 100 µM | > 100 µM | > 100 µM | – | > 100 µM | > 100 µM | > 100 µM | > 100 µM | > 100 µM | > 100 µM
COCC#C[C@@]1(O)CCCCC1CC(OC)OC (some centres not stated) | > 100 µM | > 100 µM | – | > 100 µM | > 100 µM | > 100 µM | > 100 µM | > 100 µM | – | > 100 µM
O=C1c2cccnc2S(=O)(=O)N1c1ccc([N+](=O)[O-])cc1 | > 100 µM | > 100 µM | > 100 µM | > 100 µM | – | > 100 µM | > 100 µM | > 100 µM | > 100 µM | > 100 µM
Clc1cc(C(c2cc(Cl)sc2Cl)c2cc(Cl)sc2Cl)c(Cl)s1 | > 100 µM | > 100 µM | – | > 100 µM | > 100 µM | > 100 µM | > 100 µM | > 100 µM | > 100 µM | > 100 µM
C=C(C)[C@H]1CC(=O)/C(C)=C\CC/C(C)=C/CC[C@@]2(C)O[C@@H]2C1 | > 100 µM | 87.3 µM | > 100 µM | 93.1 µM | > 100 µM | 35 µM | 61.2 µM | > 100 µM | > 100 µM | –
CC(C)=CCC12Cc3ccc(O)cc3C(C(C)CN1)C2C (configuration not stated) | > 100 µM | > 100 µM | – | 48.2 µM | > 100 µM | > 100 µM | > 100 µM | > 100 µM | > 100 µM | > 100 µM
NCCN(CCN(C(=O)Nc1ccccc1)c1ccccc1)C(=O)Nc1ccccc1 | 40.5 µM | 59.9 µM | 69.4 µM | 44.3 µM | > 100 µM | – | 49 µM | > 100 µM | 48.3 µM | 46.6 µM
COc1cccc(N2C(=O)CS(=O)(=O)C2c2cccc(Oc3ccccc3)c2)c1 (configuration not stated) | 36.7 µM | 60.2 µM | 61.4 µM | – | 19.5 µM | > 100 µM | > 100 µM | 13.1 µM | > 100 µM | 10.6 µM
Nc1c(S(N)(=O)=O)cc(S(N)(=O)=O)cc1S(N)(=O)=O | > 100 µM | > 100 µM | > 100 µM | > 100 µM | > 100 µM | > 100 µM | > 100 µM | – | > 100 µM | > 100 µM
Cc1ccc(C(=O)Cc2nc3c([nH]c2=O)c(C)nn3-c2ccccc2)c(C)c1 | – | > 10 µM | > 10 µM | > 10 µM | > 10 µM | > 10 µM | > 10 µM | > 10 µM | > 10 µM | > 10 µM
CCOC(=O)Cn1nnc2cc(Nc3c(C)[n+]([O-])c4cc(F)c(OCC)cc4[n+]3[O-])ccc21 | > 100 µM | > 100 µM | – | – | > 100 µM | > 100 µM | > 100 µM | – | > 100 µM | > 100 µM
COC(=O)C1=C(C(=O)OC)SC(=C2SC3=C(SC(=C4SCCS4)S3)S2)S1 | > 100 µM | > 100 µM | > 100 µM | – | > 100 µM | > 100 µM | > 100 µM | > 100 µM | > 100 µM | > 100 µM
O=C1N/N=C\c2ccc(cc2)OCc2cccc(n2)COc2ccc(cc2)/C=N\NC1=O | > 25 µM | > 25 µM | > 25 µM | – | > 25 µM | > 25 µM | > 25 µM | > 25 µM | > 25 µM | > 25 µM
CC1CCc2sc3nc4n(c(=O)c3c2C1)CC(C)S4 (configuration not stated) | – | 62.2 µM | > 100 µM | 42 µM | > 100 µM | > 100 µM | > 100 µM | > 100 µM | > 100 µM | 52.5 µM
Cc1cnc2[nH]c(-c3cccc(F)c3)cc(=O)c2c1 | – | > 100 µM | – | – | > 100 µM | 0.0228 µM | > 100 µM | 0.378 µM | – | –
COc1ccc(C2=C(Cl)C(=O)O/C2=C\c2ccc(OC)c(Br)c2)cc1Cl | 52.9 µM | 40.2 µM | – | > 100 µM | > 100 µM | > 100 µM | 38 µM | > 100 µM | > 100 µM | 46.9 µM
CC(=O)OC1CC2(O)C(CCC3(C)C(c4ccc(=O)oc4)CCC32O)C2(C)C1=CC(O)C1OC12 (configuration not stated) | 0.582 µM | – | – | 0.436 µM | 0.381 µM | – | 0.0874 µM | – | 0.144 µM | 0.402 µM
O=c1ccn(-c2ccccn2)c(=O)n1-c1ccccn1 | > 100 µM | > 100 µM | – | > 100 µM | > 100 µM | > 100 µM | > 100 µM | – | > 100 µM | > 100 µM
CCCCCCCCCCCCOCCOCCOCCOCCOCCOCC(=O)NC(Cc1ccccc1)C(=O)Oc1ccc([N+](=O)[O-])cc1 (configuration not stated) | 75.6 µM | > 100 µM | > 100 µM | – | > 100 µM | > 100 µM | > 100 µM | 63.9 µM | > 100 µM | > 100 µM
C[C@H](c1ccccc1)N1C(=O)[C@@H](OCc2ccccc2)[C@H]1[C@H](COC(=O)COCc1ccccc1)OCc1ccccc1 | > 100 µM | > 100 µM | – | – | > 100 µM | > 100 µM | > 100 µM | > 100 µM | > 100 µM | > 100 µM
